# In patent US20020090341A1, “Method” (NYCOMED IMAGING AS, priority 1997, published 2002):
# Where two headings read alike, the source gives them in different places.
# Assays:
# [1] = system: regionally ischemic heart; details: for Myocardial enhancement: normal myocardium
# Experimental: Sprague-Dawley rats (250-300 g) were anaesthetised with 50 mg/kg sodium pentobarbital and mechanically ventilated after tracheostomy. For bolus injection of the contrast agent, a catheter was placed in the femoral vein. In order to produce regional ischemia, left thoracotomy was performed followed by occlusion of the anterior branch of the left coronary artery. The potential of various doses of MnDPDP in demarcating regional ischemia was determined. Four groups of animals were designed, each group (n=7-8 rats) received one bolus dose (1 ml/kg) of MnDPDP (0.005, 0.010, 0.020, or 0.040 mmol/kg). MR imaging was performed between 15-20 mins after acute coronary occlusion.
# ECG-gated inversion recovery echoplanar images were acquired using a GE Omega 2.0 T system and a home-built 5.6 cm birdcage imaging coil. A blipped EPI of 64×64 points to define a […] (FOV) of 40×40 mm was used. TE was set to 10 msec by acquiring an asymmetric echo. Inversion recovery was accomplished using a composite non-selective inversion pulse which was carefully optimized prior to administration of the contrast medium. Shortly after the occlusion of the coronary vessel (15-25 mins), IR EP imaging was used to monitor bolus passage of MnDPDP through the regionally ischemic heart. Fully relaxed T1-sensitive inversion recovery EP images (TR=5 s) were acquired in a set of 16 images. Then, 32 inversion-recovery echoplanar images every 2 secs were obtained with inversion time of 700 msecs (to nullify myocardial signal) to monitor the dynamic T1 changes in myocardial signal intensity during the passage of the contrast medium. Changes in myocardial signal as a function of time were plotted. ROIs were obtained from non-ischemic and ischemic myocardium as well as from LV chamber blood. ROIs were determined on images acquired post-contrast injection, where the ischemic region is clearly defined. Alterations in signal intensity were referred to that of fully relaxed intensity (=100%).
# At the conclusion of the imaging protocol, the presence of coronary occlusion and acute ischemia was confirmed at postmortem by injecting 0.5 ml/kg phthalocyanine blue dye intravenously. Blue dye was then allowed to circulate for 3 mins before the heart was excised.
# [2] = system: ex vivo guinea pig hearts; details: for T1 relaxation time: LV tissue, 0.234 T
# Experimental: Guinea pigs (450-500 g) were anaesthetised with sodium pentobarbital (intraperiotenal injection 100 mg). Hearts were rapidly excised and connected to the aortic cannula of a standard Langendorff perfusion system with conditions preset at 37° C. Perfusion with glucose-containing Krebs Henseleit's bicarbonate buffer (Krebs buffer) was maintained in the constant flow mode during the entire experiment by use of a finely adjustable pump. Under normal perfusion conditions coronary flow rate (CFR) was […] and during global, low flow ischemia 0.25 ml/min (92% reduction of normal CFR). Left ventricular (LV) developed pressure (LVDP) was measured by use of a LV fluid-filled balloon connected to a pressure transducer and recording device. At the end of the experiments excised samples from the LV were freeze-clamped, freeze-dried and prepared for analysis of LV contents of Mn metal by atomic absorbtion spectrophotometry and of ATP by high pressure liquid chromatography. Fresh, non-clamped LV samples were taken for immediate (within 30 min) measurements of tissue longitudinal (T1) relaxation time by use of a Bruker Minispec PC 110 spectrometer operating at 0.234 T and at a proton frequency of 10 MHz.
# In normal perfusion experiments (series A) hearts were subjected to a 20 min control period before being perfused for 5 min with ascending concentrations (0-3000 μM) of MnDPDP present in the Krebs buffer. This was followed by 5 min perfusion with buffer only to ensure an effective washout of residual extracellular MnDPDP. In global ischemia experiments hearts were perfused at low flow (92% CFR reduction) with normal Krebs buffer. After different durations (0, 15, 30, 90, and 120 min) of ischemia MnDPDP (1000 μM, 3000 μM) was included in the buffer for a final 5 min period of low flow ischemia. The experiments were ended by 5 min perfusion at normal flow with anoxic and calcium-free Krebs buffer to ensure washout of residual extracellular MnDPDP without reactivating normal cardiac function. In the results (series B) the ischemia durations are presented as 0-5 min, 15-20 min, 30-35 min, 90-95 min, and 120-125 min.
# [3] = system: normal and reperfused infarcted myocardium; details: 90 minutes post injection
# Experimental: Sprague-Dawley rats (female, 270-320 g, n=24) were subjected to occlusion of the anterior branch of the left main coronary artery for 60 minutes, followed by reperfusion for 120 minutes before injecting the test agent. A catheter was placed in the tail vein for administration of contrast media. Animals were connected to an ECG patient monitor and placed in the magnet such that the heart of each rat was at or near ioscenter. Magnetic field was optimized for a central slab of 6 mm thickness, within which the 2 mm section to be imaged was located. Inversion and slice select pulses were calibrated. Inversion recovery echo planar imaging was then used to measure baseline T1 values for myocardium and left ventricle chamber blood.
# MnDPDP was then administered at doses of 25, 50 and 100 μmole/kg by intravenous injection of 2.5, 5 and 10 ml/kg, respectively, of the test solution which contained a 10 mM solution of MnDPDP. These injections were followed by a flush of physiologic saline solution (0.9%) such that the combined volumes of test agent and saline flush was 11 ml/kg. All injected solutions were warmed before being administered and were injected slowly over 1.5 mins. T1 values were remeasured at 5 minute intervals during the first 60 minutes after injection. Occasional animals were imaged at 90 minutes for T1 determination (EPI) and for visual inspection of contrast on STIR (short TI inversion recovery) prepared spin echo images.
# [4] = MnDPDP 300 μM, versus control hearts
# [5] = MnDPDP 1000 μM, versus control hearts
# [6] = MnDPDP 3000 μM, versus control hearts
smiles,measurement,setting,value
"Cc1ncc(COP(=O)(O)O)c(CN(CCN(CC(=O)[O-])Cc2c(COP(=O)(O)O)cnc(C)c2O)CC(=O)[O-])c1O.[Mn+2] [MnDPDP, manganese (II) chelate of N,N′-bis-(pyridoxal-5-phosphate)-ethylenediamine-N,N′-diacetic acid]",delineation of the ischemic region,[1]; 0.005 mmol/kg,insufficient to provide clear delineation of the ischemic region
same,delineation of the ischemic region,"[1]; 0.010, 0.020, and 0.040 mmol/kg",the ischemic region was identified as a region of very low signal
same,Myocardial enhancement,[1]; 5 micromole/kg bolus,23±2 % of fully relaxed images
same,Myocardial enhancement,[1]; 10 micromole/kg bolus,28±2 % of fully relaxed images
same,Myocardial enhancement,[1]; 20 micromole/kg bolus,34±5 % of fully relaxed images
same,Myocardial enhancement,[1]; 40 micromole/kg bolus,48±4 % of fully relaxed images
same,Tissue Mn content,"[2]; MnDPDP 30 μM 5 min, then 5 min washout, n = 6, mean (SD)",11.0(1.5) μmole/100 g dry wt
same,T1 relaxation time,"[2]; MnDPDP 30 μM, n = 6, mean (SD)",871(93) msec
same,Tissue Mn content,"[2]; MnDPDP 100 μM 5 min, then 5 min washout, n = 6, mean (SD)",12.2(2.4) μmole/100 g dry wt
same,T1 relaxation time,"[2]; MnDPDP 100 μM, n = 6, mean (SD)",808(81) msec
same,depression of LVDP,[2]; MnDPDP 300 μM,10%
same,Tissue Mn content,"[2]; MnDPDP 300 μM 5 min, then 5 min washout, n = 6, mean (SD)",23.2(4.1) μmole/100 g dry wt
same,fold increase in Mn content,[2]; [4],5-6 fold
same,reduction in T1,[2]; [4],40%
same,T1 relaxation time,"[2]; MnDPDP 300 μM, n = 6, mean (SD)",619(18) msec
same,Tissue Mn content,"[2]; MnDPDP 1000 μM 5 min, then 5 min washout, n = 6, mean (SD)",45.4(10.8) μmole/100 g dry wt
same,factor by which tissue Mn content was raised above the control level in non-treated hearts,[2]; MnDPDP 1000 μM at onset (0-5 min) of ischemia,2-3
same,Tissue Mn content,"[2]; MnDPDP 1000 μM during last 5 min, ischemia 0-5 min, n = 4, mean (SD)",10.5(3.6) μmole/100 g dry wt
same,Tissue Mn content,"[2]; MnDPDP 1000 μM during last 5 min, ischemia 15-20 min, n = 4, mean (SD)",9.9(2.3) μmole/100 g dry wt
same,Tissue Mn content,"[2]; MnDPDP 1000 μM during last 5 min, ischemia 30-35 min, n = 4, mean (SD)",4.3(1.6) μmole/100 g dry wt
same,Tissue Mn content,"[2]; MnDPDP 1000 μM during last 5 min, ischemia 90-95 min, n = 4, mean (SD)",5.7(2.4) μmole/100 g dry wt
same,Tissue Mn content,"[2]; MnDPDP 1000 μM during last 5 min, ischemia 120-125 min, n = 4, mean (SD)",5.6(2.3) μmole/100 g dry wt
same,fold rise in Mn content,[2]; [5],11 fold
same,reduction in T1 values,[2]; [5],55%
same,T1 relaxation time,"[2]; MnDPDP 1000 μM, n = 6, mean (SD)",461(85) msec
same,Tissue Mn content,"[2]; MnDPDP 3000 μM 5 min, then 5 min washout, n = 6, mean (SD)",70.4(14.9) μmole/100 g dry wt
same,factor by which tissue Mn content was raised above the control level in non-treated hearts,[2]; MnDPDP 3000 μM at onset (0-5 min) of ischemia,4-5
same,Tissue Mn content,"[2]; MnDPDP 3000 μM during last 5 min, ischemia 0-5 min, n = 4, mean (SD)",16.5(2.4) μmole/100 g dry wt
same,Tissue Mn content,"[2]; MnDPDP 3000 μM during last 5 min, ischemia 15-20 min, n = 4, mean (SD)",12.9(4.0) μmole/100 g dry wt
same,Tissue Mn content,"[2]; MnDPDP 3000 μM during last 5 min, ischemia 30-35 min, n = 4, mean (SD)",6.0(2.2) μmole/100 g dry wt
same,Tissue Mn content,"[2]; MnDPDP 3000 μM during last 5 min, ischemia 90-95 min, n = 4, mean (SD)",7.2(2.8) μmole/100 g dry wt
same,fold rise in Mn content,[2]; [6],17 fold
same,reduction in T1 values,[2]; [6],70%
same,T1 relaxation time,"[2]; MnDPDP 3000 μM, n = 6, mean (SD)",341(46) msec
same,"tissue Mn contents, normal perfusion conditions relative to early ischemic conditions (0-5 min)",[2]; Table 1 versus Table 3,approximately 4 times
same,LVDP after washout,[2]; following 5 min of MnDPDP washout,returns rapidly to control values
same,LVDP during perfusion,[2]; higher concentrations of MnDPDP,falls rapidly
same,tissue Mn content compared with normally perfused non-treated hearts,"[2]; ischemic durations of 30-35 min, 90-95 min, and 120-125 min",not significantly different
same,"SI normal/SI infarct, conventional T1 weighted images",[3]; highest dose,1.15
same,"SI normal/SI infarct, STIR sequences",[3]; lowest dose,0.85-1.3
same,"SI normal/SI infarct, conventional T1 weighted images",[3]; lowest dose (n=1),about 1.25
